Laboratory results published in patent publication US20040162263A1, “Pharmaceutical formulations targeting specific regions of the gastrointesinal tract” (priority 2002, published 2004).
“And” between values parts separate entries of the source, which are not always exact repeats. Identical values can stand only once. Like-named read-outs stand apart in the source and are kept apart here.

Assay: Pharmacokinetics of decitabine in IVAP rabbit model
Assay type: in vivo, rabbits
Settings: for MRT: read-out: Mean Residence Time; for Vd: read-out: Volume (Vz); for CMAX: read-out: Mean Cmax
Description: Decitabine was administered intravenously to IVAP rabbits (n=3) at three doses: 0.75, 1.5 and 2.5 mg/kg. It was also administered at 2.5mg/kg orally and through previously implanted intestinal and vascular access ports in the portal vein (PV), upper small intestine (USI), lower small intestine (LSI) and colon (IC). All routes received the same simple formulation of raw compound dissolved in cold saline. Care was taken to insure doses were delivered immediately (less than 15 minutes) after dissolving the powder and that the liquid formulation was kept on ice up to the time of administration. Blood samples were taken simultaneously from the median auricular artery and through a port in the portal vein at predetermined time points. Plasma was separated and kept frozen at −70° C. until shipped to Xenobiotic Laboratories for analysis.
Pharmacokinetic parameters were calculated using non-compartmental models with the Winnonlin v3.1 program.

[1] = rabbit, plasma, 2.5 mg/kg, 2.5 mg/kg IC
[2] = rabbit, plasma, 2.5 mg/kg, 2.5 mg/kg LSI
[3] = rabbit, plasma, 2.5 mg/kg, 2.5 mg/kg USI
[4] = rabbit, plasma, 2.5 mg/kg, LSI 2.5 mg/kg
[5] = rabbit, plasma, 2.5 mg/kg, USI 2.5 mg/kg
[6] = rabbit, plasma, Overall mean of all doses and routes
[7] = rabbit, plasma, iv, 0.75 mg/kg, 0.75 mg/kg IV
[8] = rabbit, plasma, iv, 1.5 mg/kg, 1.5 mg/kg IV
[9] = rabbit, plasma, iv, 2.5 mg/kg, 2.5 mg/kg IV
[10] = rabbit, plasma, other: portal vein (PV) via implanted access port, 2.5 mg/kg, 2.5 mg/kg PV
[11] = rabbit, plasma, po, 2.5 mg/kg, 2.5 mg/kg Oral
[12] = rabbit, plasma, po, 2.5 mg/kg, Oral 2.5 mg/kg

For Nc1ncn([C@H]2C[C@H](O)[C@@H](CO)O2)c(=O)n1 [decitabine, 5-aza-2′-deoxycytidine], which concentration SYS, individual (IV 1.5 mg/kg, 240 min, 1.5 mg/kg) is on record?
The concentration SYS, individual was 10.2 ng/mL.

What about the “IV AUC0-inf, individual” value (IV 1.5 mg/kg, 1.5 mg/kg) of the same compound?
The value was 552.87 ng·h/mL and 612.34 ng·h/mL.

What about the “IV AUC0-inf, individual” value (IV 2.5 mg/kg, 2.5 mg/kg) of the same compound?
The value was 896.21 ng·h/mL and 1128.11 ng·h/mL.

And the “Individual systemic Bioavailability” value (LSI 2.5 mg/kg)?
The value was 44.48% and 51.78%.

And the “Volume (Vz)” value (Oral)?
The value was 2.29 L/kg.

What about the clearance (Oral) of the same compound?
Its clearance is 37.7 mL/min/kg.

And the “Individual systemic Bioavailability” value (PO 2.5 mg/kg, 2.5 mg/kg)?
The value was 28.57% and 38.84%.

What about the “systemic Bioavailability, Mean” value (PO 2.5 mg/kg, 2.5 mg/kg) of the same compound?
The value was 35.51%.

What about the “Individual systemic Bioavailability” value (PV 2.5 mg/kg) of the same compound?
Its value is 79.63% and 58.11% and 66.02%.

And the “systemic Bioavailability, Mean” value (PV 2.5 mg/kg)?
The value was 67.92%.

And the “Individual systemic Bioavailability” value (USI 2.5 mg/kg)?
The value was 84.33% and 72.64%.

What about the “systemic Bioavailability, Mean” value (USI 2.5 mg/kg) of the same compound?
Its value is 73.94%.

What about the bioavailability (rabbit, plasma (systemic), 2.5 mg/kg, IC 2.5 mg/kg, read-out: systemic Bioavailability, Mean) of the same compound?
Its bioavailability is 34.3%.

And the bioavailability (rabbit, plasma (systemic), 2.5 mg/kg, LSI 2.5 mg/kg, read-out: Individual systemic Bioavailability)?
Its bioavailability is 55%.

What about the bioavailability (rabbit, plasma (systemic), 2.5 mg/kg, LSI 2.5 mg/kg, read-out: systemic Bioavailability, Mean) of the same compound?
Its bioavailability is 50.4%.

And the bioavailability (rabbit, plasma (systemic), 2.5 mg/kg, USI 2.5 mg/kg, read-out: Individual systemic Bioavailability)?
Its bioavailability is 64.8%.

And the bioavailability (rabbit, plasma (systemic), po, 2.5 mg/kg, PO 2.5 mg/kg, read-out: Individual systemic Bioavailability)?
The bioavailability was 39.1%.

What about the AUC(0-inf) (rabbit, plasma (systemic, median auricular artery), 2.5 mg/kg, USI 2.5 mg/kg, read-out: Mean AUC0-inf in Systemic Samples) of the same compound?
The AUC(0-inf) was 837 ng·h/mL.

And the AUC(0-inf) (rabbit, plasma (systemic, median auricular artery), po, 2.5 mg/kg, Oral 2.5 mg/kg, read-out: Mean AUC0-inf in Systemic Samples)?
The AUC(0-inf) was 402 ng·h/mL.

And the half-life [1]?
The half-life was 40.8 ± 0.6 min.

And the MRT [1]?
Its MRT is 64.2 ± 1.2 min.

And the half-life [2]?
The half-life was 44.4 ± 3.6 min.

And the MRT [2]?
The MRT was 55.2 ± 5.4 min.

And the half-life [3]?
The half-life was 47.4 ± 5.4 min.

And the MRT [3]?
The MRT was 55.2 ± 4.8 min.

What about the TMAX (rabbit, plasma, 2.5 mg/kg, IC 2.5 mg/kg) of the same compound?
Its TMAX is 15 min.

What about the clearance (rabbit, plasma, 2.5 mg/kg, IC, read-out: Clearance (converted)) of the same compound?
Its clearance is 36.8 mL/min/kg.

And the Vd (rabbit, plasma, 2.5 mg/kg, IC)?
The Vd was 2.16 L/kg.

What about the TMAX [4] of the same compound?
Its TMAX is 8.4 ± 5.76 min.

And the CMAX [4]?
The CMAX was 736 ± 95.6 ng/mL.

And the clearance (rabbit, plasma, 2.5 mg/kg, LSI, read-out: Clearance (converted))?
The clearance was 37.2 mL/min/kg.

What about the Vd (rabbit, plasma, 2.5 mg/kg, LSI) of the same compound?
Its Vd is 2.37 L/kg.

And the bioavailability (rabbit, plasma, 2.5 mg/kg, PV 2.5 mg/kg, read-out: systemic Bioavailability, Mean)?
Its bioavailability is 67.9%.

And the TMAX [5]?
Its TMAX is 4.98 min.

And the CMAX [5]?
Its CMAX is 1220 ± 280 ng/mL.

And the bioavailability (rabbit, plasma, 2.5 mg/kg, USI 2.5 mg/kg, read-out: systemic Bioavailability, Mean)?
The bioavailability was 73.9%.

What about the clearance (rabbit, plasma, 2.5 mg/kg, USI, read-out: Clearance (converted)) of the same compound?
The clearance was 37.2 mL/min/kg.

And the Vd (rabbit, plasma, 2.5 mg/kg, USI)?
The Vd was 2.51 L/kg.

And the half-life [6]?
The half-life was 43.2 ± 4.2 min.

And the MRT [6]?
Its MRT is 55.8 ± 6.6 min.

What about the half-life [7] of the same compound?
The half-life was 43.8 ± 1.8 min.

And the MRT [7]?
The MRT was 50.4 ± 1.8 min.

And the AUC(0-inf) (rabbit, plasma, iv, 0.75 mg/kg, IV 0.75 mg/kg, read-out: IV AUC0-inf, Mean)?
Its AUC(0-inf) is 340 ng·h/mL.

What about the AUC(0-inf) (rabbit, plasma, iv, 0.75 mg/kg, IV 0.75 mg/kg, read-out: IV AUC0-inf, individual) of the same compound?
The AUC(0-inf) was 323 ng·h/mL.

What about the half-life [8] of the same compound?
Its half-life is 45 ± 2.4 min.

And the MRT [8]?
The MRT was 49.8 ± 1.8 min.

What about the AUC(0-inf) (rabbit, plasma, iv, 1.5 mg/kg, IV 1.5 mg/kg, read-out: IV AUC0-inf, Mean) of the same compound?
The AUC(0-inf) was 574 ng·h/mL.

What about the AUC(0-inf) (rabbit, plasma, iv, 1.5 mg/kg, IV 1.5 mg/kg, read-out: IV AUC0-inf, individual) of the same compound?
The AUC(0-inf) was 557 ng·h/mL.

And the half-life [9]?
The half-life was 35.4 ± 1.2 min.

What about the MRT [9] of the same compound?
Its MRT is 49.8 ± 9 min.

What about the AUC(0-inf) (rabbit, plasma, iv, 2.5 mg/kg, IV 2.5 mg/kg, read-out: IV AUC0-inf, Mean) of the same compound?
Its AUC(0-inf) is 1060 ng·h/mL.

What about the AUC(0-inf) (rabbit, plasma, iv, 2.5 mg/kg, IV 2.5 mg/kg, read-out: IV AUC0-inf, individual) of the same compound?
The AUC(0-inf) was 1170 ng·h/mL.

What about the clearance (rabbit, plasma, iv, IV (overall), read-out: Clearance (converted)) of the same compound?
Its clearance is 40 mL/min/kg.

What about the Vd (rabbit, plasma, iv, IV (overall)) of the same compound?
The Vd was 2.41 ± 0.41 L/kg.

And the bioavailability (rabbit, plasma, other: portal vein (PV) port, 2.5 mg/kg, PV 2.5 mg/kg, read-out: systemic Bioavailability, Mean)?
The bioavailability was 68%.

What about the half-life [10] of the same compound?
Its half-life is 46.2 ± 4.2 min.

And the MRT [10]?
Its MRT is 48 ± 3.6 min.

And the clearance (rabbit, plasma, other: portal vein (PV) via implanted access port, 2.5 mg/kg, PV, read-out: Clearance (converted))?
The clearance was 55.2 mL/min/kg.

And the Vd (rabbit, plasma, other: portal vein (PV) via implanted access port, 2.5 mg/kg, PV)?
Its Vd is 3.63 L/kg.

What about the bioavailability (rabbit, plasma, other: upper small intestine (USI) port, 2.5 mg/kg, USI 2.5 mg/kg, read-out: systemic Bioavailability, Mean) of the same compound?
The bioavailability was 74%.

And the half-life [11]?
The half-life was 41.4 ± 15.6 min.

What about the MRT [11] of the same compound?
Its MRT is 72.6 ± 24 min.

And the TMAX [12]?
The TMAX was 25.2 ± 8.4 min.

What about the CMAX [12] of the same compound?
The CMAX was 335 ± 134 ng/mL.

And the bioavailability (rabbit, plasma, po, 2.5 mg/kg, PO 2.5 mg/kg, read-out: systemic Bioavailability, Mean)?
Its bioavailability is 35.5%.

And the AUC(0-inf) (rabbit, portal vein plasma, 2.5 mg/kg, LSI 2.5 mg/kg, read-out: Mean AUC0-inf in Portal Vein)?
Its AUC(0-inf) is 586 ng·h/mL.

What about the AUC(0-inf) (rabbit, portal vein plasma, 2.5 mg/kg, USI 2.5 mg/kg, read-out: Mean AUC0-inf in Portal Vein) of the same compound?
The AUC(0-inf) was 833 ng·h/mL.

And the AUC(0-inf) (rabbit, portal vein plasma, po, 2.5 mg/kg, Oral 2.5 mg/kg, read-out: Mean AUC0-inf in Portal Vein)?
Its AUC(0-inf) is 397 ng·h/mL.

What about the AUC(0-inf) (rabbit, systemic plasma (median auricular artery), 2.5 mg/kg, LSI 2.5 mg/kg, read-out: Mean AUC0-inf in Systemic Samples) of the same compound?
Its AUC(0-inf) is 571 ng·h/mL.
